Values of other authors, collected in US6872408B2, “Method of treating bipolar disorders using deuterium-substituted carbonate” (priority 2001, dated 2005).

Key:
[1] = system: mice
[2] = system: mouse
[3] = system: biological clock; settings: in vivo
[4] = system: deer mice; settings: increasing ratio of D2O to H2O in drinking water
[5] = system: patients with bipolar disorder
[6] = system: patients; settings: patients treated for mania

Compound: [2H]O[2H] [Deuterium oxide]
- effect on the period and entrainment of the light-dark (LD) cycle [1]: chronomutagenic effect
- spontaneous locomotor activity [2]: suppressed
- effect on length of the biological clock [3]: lengthen the biological clock
- effect of D2O on the biological clock [4]: dose dependent and reversible

Compound: CCO [ethanol]
- effect on length of the biological clock [3]: lengthen the biological clock

Compound: [Li] [lithium]
- time for effects to take affect ([5]; patients with bipolar disorder): up to 2 weeks
- patients receiving beneficial effects ([5]; patients with bipolar disorder prescribed lithium): up to 80%

Compound: CCCC(CCC)C(=O)O [DEPAKOTE, valproic acid]
- side effect [6]: frequently causes blood dyscrasias

Compound: CC(C)[C@@H]1NC(=O)[C@H](C)OC(=O)[C@@H](C(C)C)NC(=O)[C@@H](C(C)C)OC(=O)[C@H](C(C)C)NC(=O)[C@H](C)OC(=O)[C@@H](C(C)C)NC(=O)[C@@H](C(C)C)OC(=O)[C@H](C(C)C)NC(=O)[C@H](C)OC(=O)[C@@H](C(C)C)NC(=O)[C@@H](C(C)C)OC1=O [valinomycin]
- effect on length of the biological clock [3]: lengthen the biological clock

Compound: lithium salts
- effect on length of the biological clock [3]: lengthen the biological clock
